Data set [1] concerns downmodulation of MHC-I molecules expressed on the surface of HIV infected SupT1 cells. Briefly: cells. The following applies: for EC50: Human immunodeficiency virus 1, SUP-T1, read-out: EC50 for inhibition of MHC-I downmodulation utilizing the R1 parameter; for activity at 100 µM: Human immunodeficiency virus 1, SUP-T1, read-out: R1 @ 100 μM (R1 value for MHC-I downmodulation as % of the vehicle control).

Data set [2] can be described thus: in vitro. The following applies: human, uninfected SupT1 cells.

Regarding `CC(C)(C)OC(=O)N1CCC(CNC(=O)c2csc(NC(=O)COc3cccc4c3OC(C)(C)C4)n2)C1` (centres unmarked) [Compound 155, tert-Butyl 3-((2-(2-((2,2-dimethyl-2,3-dihydrobenzofuran-7-yl)oxy)acetamido)thiazole-4-carboxamido)methyl)pyrrolidine-1-carboxylate], in data set [1], the 50% effective concentration (EC50) is greater than 25000 nM and the activity at 100 µM is no less than 100%. In data set [2], the CC50 is greater than 90 µM and the CC50 at 48 h was greater than 90 µM.
Consider `CC1(C)Cc2cccc(OCC(=O)Nc3nc(C(=O)NCC4CCNC4)cs3)c2O1` (centres unmarked) [Compound 156, 2-(2-((2,2-dimethyl-2,3-dihydrobenzofuran-7-yl)oxy)acetamido)-N-(pyrrolidin-3-ylmethyl)thiazole-4-carboxamide], for which, in data set [1], the EC50 was greater than 25000 nM and the activity at 100 µM is 40%. In data set [2], this molecule registered a CC50 greater than 90 µM and a CC50 at 48 h greater than 90 µM.
Regarding `CC(C)(C)OC(=O)N1CCC(CNC(=O)c2cnc(NC(=O)COc3cccc4c3OC(C)(C)C4)s2)C1` (centres unmarked) [Compound 157, tert-Butyl 3-((2-(2-((2,2-dimethyl-2,3-dihydrobenzofuran-7-yl)oxy)acetamido)thiazole-5-carboxamido)methyl)pyrrolidine-1-carboxylate], in data set [1], the 50% effective concentration (EC50) is greater than 25000 nM and the activity at 100 µM is no less than 100%. Besides, in data set [2], the half-maximal cytotoxic concentration (CC50) was greater than 90 µM and the CC50 at 48 h is greater than 90 µM.
Regarding `CCc1cccc(NC(=O)COc2cccc3c2OC(C)(C)C3)n1` [Compound 158, 2-((2,2-Dimethyl-2,3-dihydrobenzofuran-7-yl)oxy)-N-(6-ethylpyridin-2-yl) acetamide], the EC50 in data set [1] was 13000 nM. The same molecule yielded a CC50 at 48 h in data set [2] greater than 125 µM.
As for `Cc1csc(N(Cc2ccccc2)C(=O)COc2cccc3c2OC(C)(C)C3)n1` [Compound 159, N-Benzyl-2-((2,2-dimethyl-2,3-dihydrobenzofuran-7-yl)oxy)-N-(4-methylthiazol-2-yl)acetamide], the half-maximal effective concentration (EC50) in data set [1] turned out to be 180 nM. In data set [2], this molecule yielded a 50% cytotoxic concentration (CC50) at 48 h greater than 90 µM.
As for `CN(C(=O)COc1ccccc1C(F)(F)F)c1nc2c(s1)CCCC2` [Compound 160, N-Methyl-N-(4,5,6,7-tetrahydrobenzo[d]thiazol-2-yl)-2-(2-(trifluoromethyl)phenoxy)acetamide], the EC50 in data set [1] was 280 nM. This molecule had a 50% cytotoxic concentration (CC50) at 48 h in data set [2] greater than 125 µM.
On to `CN(C(=O)COc1ccccc1OC(F)(F)F)c1nc2c(s1)CCCC2` [Compound 161, N-Methyl-N-(4,5,6,7-tetrahydrobenzo[d]thiazol-2-yl)-2-(2-(trifluoromethoxy)phenoxy)acetamide], for which the EC50 in data set [1] stood at 150 nM. Also, in data set [2], the CC50 at 48 h was greater than 125 µM.
As for `CN(C(=O)COc1cccc2c1OC(C)(C)C2)c1nc2c(s1)CCC2` [Compound 162, N-(5,6-Dihydro-4H-cyclopenta[d]thiazol-2-yl)-2-((2,2-dimethyl-2,3-dihydrobenzofuran-7-yl)oxy)-N-methylacetamide], the concentration giving a half-maximal response (EC50) in data set [1] stood at 27 nM. The molecule also displayed a CC50 at 48 h in data set [2] of 124 µM.
As to `CC1(C)Cc2cccc(OCC(=O)Nc3ccc4c(n3)CCC4)c2O1` [Compound 163, N-(6,7-dihydro-5H-cyclopenta[b]pyridin-2-yl)-2-((2,2-dimethyl-2,3-dihydrobenzofuran-7-yl)oxy)acetamide], in data set [1], the EC50 is 370 nM. Also, the cytotoxic concentration (CC50) at 48 h in data set [2] is greater than 125 µM.
Regarding `CC1(C)Cc2cccc(OCC(=O)Nc3nc4c(s3)COCC4)c2O1` [Compound 175, N-(6,7-Dihydro-4H-pyrano[4,3-d]thiazol-2-yl)-2-((2,2-dimethyl-2,3-dihydrobenzofuran-7-yl)oxy)acetamide], the 50% effective concentration (EC50) in data set [1] was 1200 nM. The molecule further showed a half-maximal cytotoxic concentration (CC50) at 48 h in data set [2] of 10 µM.
In the case of `O=C(COc1cccc2c1OCCO2)Nc1nc2ccccc2s1` [Compound 176, N-(Benzo[d]thiazol-2-yl)-2-((2,3-dihydrobenzo[b][1,4]dioxin-5-yl)oxy) acetamide], the EC50 in data set [1] came out at 8900 nM. Besides, the cytotoxic concentration (CC50) at 48 h in data set [2] was greater than 100 µM.
Regarding `Cc1ccc(NC(=O)COc2cccc3c2OC(C)(C)C3)nc1` [Compound 177, 2-((2,2-Dimethyl-2,3-dihydrobenzofuran-7-yl)oxy)-N-(5-methylpyridin-2-yl) acetamide], the EC50 in data set [1] stood at 240 nM. The CC50 at 48 h in data set [2] is greater than 100 µM.
Take `CC1(C)Cc2cccc(OCC(=O)Nc3cccc4cccnc34)c2O1` [Compound 178, 2-((2,2-Dimethyl-2,3-dihydrobenzofuran-7-yl)oxy)-N-(quinolin-8-yl) acetamide]: in data set [1], the concentration giving a half-maximal response (EC50) is greater than 25000 nM and the activity at 100 µM is 20%. In data set [2], this molecule had a CC50 greater than 25 µM and a CC50 at 48 h greater than 25 µM.
Consider `Cc1ccnc(NC(=O)COc2cccc3c2OC(C)(C)C3)n1` [Compound 179, 2-((2,2-Dimethyl-2,3-dihydrobenzofuran-7-yl)oxy)-N-(4-methylpyrimidin-2-yl)acetamide], for which, in data set [1], the EC50 was greater than 25000 nM. This molecule also showed a CC50 at 48 h in data set [2] greater than 100 µM.
For `Cc1csc(N(C(=O)COc2cccc3c2OC(C)(C)C3)c2ccccc2)n1` [Compound 180, 2-((2,2-Dimethyl-2,3-dihydrobenzofuran-7-yl)oxy)-N-(4-methylthiazol-2-yl)-N-phenylacetamide], the EC50 in data set [1] stood at 28 nM. This molecule also had a half-maximal cytotoxic concentration (CC50) at 48 h in data set [2] greater than 100 µM.
With `Cc1csc(NC(=O)COc2cccc3c2OC(C)(C)C3)n1` [Compound 181, 2-((2,2-Dimethyl-2,3-dihydrobenzofuran-7-yl)oxy)-N-(4-methylthiazol-2-yl) acetamide], in data set [1], the EC50 worked out at 620 nM. The cytotoxic concentration (CC50) at 48 h in data set [2] is greater than 90 µM.
For `Cc1cnc(NC(=O)COc2cccc3c2OC(C)(C)C3)s1` [Compound 182, 2-((2,2-Dimethyl-2,3-dihydrobenzofuran-7-yl)oxy)-N-(5-methylthiazol-2-yl) acetamide] the same measures were 370 nM and 69 µM.
The matching figures for `CC1(C)Cc2cccc(OCC(=O)Nc3nc4ccc(F)cc4s3)c2O1` [Compound 183, 2-((2,2-Dimethyl-2,3-dihydrobenzofuran-7-yl)oxy)-N-(6-fluorobenzo[d]thiazol-2-yl)acetamide]: 4200 nM and greater than 100 µM.
For `Cc1cccc2sc(NC(=O)COc3cccc4c3OC(C)(C)C4)nc12` [Compound 184, 2-((2,2-Dimethyl-2,3-dihydrobenzofuran-7-yl)oxy)-N-(4-methylbenzo[d]thiazol-2-yl)acetamide] the same measures were 3300 nM and greater than 90 µM.
As for `Cc1nc(NC(=O)COc2cccc3c2OC(C)(C)C3)sc1C` [Compound 185, 2-((2,2-Dimethyl-2,3-dihydrobenzofuran-7-yl)oxy)-N-(4,5-dimethylthiazol-2-yl)acetamide], in data set [1], the concentration for a half-maximal effect (EC50) is 200 nM. The molecule further came in with a half-maximal cytotoxic concentration (CC50) at 48 h in data set [2] greater than 90 µM.
On to `COc1ccccc1OCC(=O)Nc1nc(C)c(C)s1` [Compound 186, N-(4,5-Dimethylthiazol-2-yl)-2-(2-methoxyphenoxy)acetamide], for which, in data set [1], the EC50 is no less than 25000 nM and the activity at 100 µM stood at 18%. In data set [2], this molecule gave a CC50 greater than 100 µM and a CC50 at 48 h greater than 100 µM.
`COc1ccccc1OCC(=O)Nc1nc2ccccc2s1` [Compound 187, N-(Benzo[d]thiazol-2-yl)-2-(2-methoxyphenoxy)acetamide]: in data set [1], the EC50 was no less than 25000 nM and the activity at 100 µM is 45%. In data set [2], this molecule gave a CC50 greater than 100 µM and a 50% cytotoxic concentration (CC50) at 48 h greater than 100 µM.
